From patent US8530460B2, “Azetidine derivatives” (Boehringer Ingelheim International GmbH, priority 2011, dated 2013)

These compounds were tested against human ACC2 (Homo sapiens (Human), UniProt O00763) (assay: ACC2 assay (spectrophotometric 384 well assay, NADH-linked coupled lactate dehydrogenase/pyruvate kinase)). Settings: hACC2 construct lacking 128 N-terminal amino acids; 25° C., 340 nm, 15 minutes.
Assay type: biochemical

human ACC2, sequence (O00763 129-2458): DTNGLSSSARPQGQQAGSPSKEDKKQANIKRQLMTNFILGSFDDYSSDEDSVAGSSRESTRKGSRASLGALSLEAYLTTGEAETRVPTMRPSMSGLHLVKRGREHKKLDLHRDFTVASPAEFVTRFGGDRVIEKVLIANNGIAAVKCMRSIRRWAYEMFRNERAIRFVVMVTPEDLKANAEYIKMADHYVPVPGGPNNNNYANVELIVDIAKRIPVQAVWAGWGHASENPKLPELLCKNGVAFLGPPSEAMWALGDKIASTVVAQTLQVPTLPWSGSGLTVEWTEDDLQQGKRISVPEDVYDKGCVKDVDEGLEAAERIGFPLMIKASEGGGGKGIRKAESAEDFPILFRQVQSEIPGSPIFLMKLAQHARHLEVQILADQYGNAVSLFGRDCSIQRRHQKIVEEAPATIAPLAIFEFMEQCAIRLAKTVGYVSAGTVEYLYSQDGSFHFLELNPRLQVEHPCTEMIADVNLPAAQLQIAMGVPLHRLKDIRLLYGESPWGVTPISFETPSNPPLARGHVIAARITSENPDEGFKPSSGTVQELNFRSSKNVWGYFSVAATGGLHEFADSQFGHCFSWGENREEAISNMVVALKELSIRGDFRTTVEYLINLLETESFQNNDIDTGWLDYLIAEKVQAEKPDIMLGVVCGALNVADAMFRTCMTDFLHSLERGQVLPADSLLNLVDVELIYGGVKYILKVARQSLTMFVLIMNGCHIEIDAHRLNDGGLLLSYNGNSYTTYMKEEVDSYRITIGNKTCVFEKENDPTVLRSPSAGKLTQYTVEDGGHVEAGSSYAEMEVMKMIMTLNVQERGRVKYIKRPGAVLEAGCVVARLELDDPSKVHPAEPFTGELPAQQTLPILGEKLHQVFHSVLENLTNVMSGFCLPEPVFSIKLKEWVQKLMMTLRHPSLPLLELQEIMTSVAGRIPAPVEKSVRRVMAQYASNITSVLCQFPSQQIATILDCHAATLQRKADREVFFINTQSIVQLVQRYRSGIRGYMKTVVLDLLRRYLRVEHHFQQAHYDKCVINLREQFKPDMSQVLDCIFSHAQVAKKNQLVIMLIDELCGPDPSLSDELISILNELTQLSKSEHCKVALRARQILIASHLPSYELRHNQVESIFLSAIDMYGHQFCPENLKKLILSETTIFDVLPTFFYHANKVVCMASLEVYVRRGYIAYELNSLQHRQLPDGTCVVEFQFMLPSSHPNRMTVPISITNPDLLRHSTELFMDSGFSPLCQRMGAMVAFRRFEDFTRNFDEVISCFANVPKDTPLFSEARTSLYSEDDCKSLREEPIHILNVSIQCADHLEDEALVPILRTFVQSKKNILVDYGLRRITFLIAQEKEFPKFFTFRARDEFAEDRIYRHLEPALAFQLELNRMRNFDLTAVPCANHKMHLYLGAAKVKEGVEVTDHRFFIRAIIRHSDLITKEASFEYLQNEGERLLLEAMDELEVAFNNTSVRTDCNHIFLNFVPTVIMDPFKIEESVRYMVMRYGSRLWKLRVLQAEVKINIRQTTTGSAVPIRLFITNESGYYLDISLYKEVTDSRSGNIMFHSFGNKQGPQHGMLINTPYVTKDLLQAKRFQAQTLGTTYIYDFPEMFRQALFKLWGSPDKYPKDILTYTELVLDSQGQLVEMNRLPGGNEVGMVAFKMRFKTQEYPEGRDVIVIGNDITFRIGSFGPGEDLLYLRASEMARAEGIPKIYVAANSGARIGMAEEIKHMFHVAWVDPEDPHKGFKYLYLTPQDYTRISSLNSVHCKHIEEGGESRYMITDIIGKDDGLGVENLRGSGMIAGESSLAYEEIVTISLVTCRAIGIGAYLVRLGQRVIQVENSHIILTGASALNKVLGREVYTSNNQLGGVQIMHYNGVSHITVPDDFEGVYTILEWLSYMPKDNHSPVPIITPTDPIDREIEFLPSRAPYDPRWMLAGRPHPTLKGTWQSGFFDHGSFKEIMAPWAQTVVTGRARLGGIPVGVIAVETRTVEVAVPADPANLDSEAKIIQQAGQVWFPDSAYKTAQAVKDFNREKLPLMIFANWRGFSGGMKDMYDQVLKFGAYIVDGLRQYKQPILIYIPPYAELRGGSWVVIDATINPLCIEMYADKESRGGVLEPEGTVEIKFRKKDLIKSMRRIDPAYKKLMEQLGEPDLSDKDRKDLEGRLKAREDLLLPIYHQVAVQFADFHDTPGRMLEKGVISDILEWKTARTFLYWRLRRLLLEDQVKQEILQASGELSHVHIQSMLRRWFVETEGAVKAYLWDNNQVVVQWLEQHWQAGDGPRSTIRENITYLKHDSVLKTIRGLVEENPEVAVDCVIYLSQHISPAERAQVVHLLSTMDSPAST

`CCOc1ccc(N2CC(Oc3ccc([C@H](C)NC(=O)c4ccnc(NC(C)=O)c4)cc3)C2)cc1` [Example 8.25] and `CCOc1ccc(N2CC(Oc3ccc([C@H](C)NC(=O)c4cnc(NC(C)=O)s4)cc3)C2)cc1` [Example 8.32] are within 1.5-fold of each other in IC50: 530 nM for the first, 550 nM for the second.

Going from `CCOc1ccc(N2CC(Oc3ccc([C@H](C)NC(=O)CCOC)cc3)C2)cc1` [Example 8.26] to `CCCC(=O)N[C@@H](C)c1ccc(OC2CN(c3ccc(OCC)cc3)C2)cc1` [Example 8.42], the IC50 falls from 2780 nM to 1690 nM (1.6-fold).

`CCOc1ccc(N2CC(Oc3ccc([C@H](C)NC(=O)C4CC(C)C4)cc3)C2)cc1` (stereo partly drawn) [Example 8.27] and `CCOc1ccc(N2CC(Oc3ccc([C@H](C)NC(=O)C4CC(OC)C4)cc3)C2)cc1` (stereo partly drawn) [Example 8.44] are within 1.5-fold of each other in IC50: 760 nM for the first, 930 nM for the second.

Compared with `CCOc1ccc(N2CC(Oc3ccc([C@H](C)NC(=O)c4sc(NC(C)=O)nc4C)cc3)C2)cc1` [Example 8.28], `CCOc1ccc(N2CC(Oc3ccc([C@H](C)NC(=O)c4csc(NC(C)=O)n4)cc3)C2)cc1` [Example 8.35] is 19-fold higher in IC50: 170 nM for the first, 3160 nM for the second. The first is the more potent here.

Going from `CCOc1ccc(N2CC(Oc3ccc([C@H](C)NC(=O)CC)cc3)C2)cc1` [Example 8.29] to `CCOc1ccc(N2CC(Oc3ccc([C@H](C)NC(=O)CF)cc3)C2)cc1` [Example 8.30], the IC50 rises from 410 nM to 670 nM (1.6-fold).

Going from `CCOc1ccc(N2CC(Oc3ccc([C@H](C)NC(=O)c4ccno4)cc3)C2)cc1` [Example 8.31] to `CCOc1ccc(N2CC(Oc3ccc([C@H](C)NC(=O)c4cnco4)cc3)C2)cc1` [Example 8.33], the IC50 falls from 1090 nM to 190 nM (5.7-fold).

Going from `CCOc1ccc(N2CC(Oc3ccc([C@H](C)NC(=O)c4ccns4)cc3)C2)cc1` [Example 8.34] to `CCOc1ccc(N2CC(Oc3ccc([C@H](C)NC(=O)c4cncs4)cc3)C2)cc1` [Example 8.41], the IC50 falls from 810 nM to 510 nM (1.6-fold).

First: CCOc1ccc(N2CC(Oc3ccc([C@H](C)NC(=O)C(C)(C)OC)cc3)C2)cc1 [Example 8.36]
Second: CCOc1ccc(N2CC(Oc3ccc([C@H](C)NC(=O)OC)cc3)C2)cc1 [Example 10.7]
The IC50 of the first is 13-fold higher: 3040 nM for the first, 230 nM for the second. The second is the more potent here.

`CCOc1ccc(N2CC(Oc3ccc([C@H](C)NC(=O)c4ccc(C)o4)cc3)C2)cc1` [Example 8.37] and `CCOc1ccc(N2CC(Oc3ccc([C@H](C)NC(=O)c4cccnc4)cc3)C2)cc1` [Example 8.45] are within 1.5-fold of each other in IC50: 2060 nM for the first, 2310 nM for the second.

Going from `CCOc1ccc(N2CC(Oc3ccc([C@H](C)NC(=O)C4CNC(=O)C4)cc3)C2)cc1` (stereo partly drawn) [Example 8.39] to `CCOc1ccc(N2CC(Oc3ccc([C@H](C)NC(=O)C4CC=CC4)cc3)C2)cc1` [Example 8.40], the IC50 falls from 5200 nM to 350 nM (15-fold).

`CCOc1ccc(N2CC(Oc3ccc([C@H](C)NC(=O)CCCNC(C)=O)cc3)C2)cc1` [Example 8.43] and `CCOc1ccc(N2CC(Oc3ccc([C@H](C)NC(=O)COC)cc3)C2)cc1` [Example 8.47] are within 1.5-fold of each other in IC50: 2340 nM for the first, 1910 nM for the second.

First: CCOc1ccc(N2CC(Oc3ccc([C@H](C)NC(=O)C4CCOC4)cc3)C2)cc1 (stereo partly drawn) [Example 8.46]
Second: CCOc1ccc(N2CC(Oc3ccc([C@H](C)NC(=O)N(C)C)cc3)C2)cc1 [Example 10.3]
The IC50 of the first is 1.8-fold higher: 1190 nM for the first, 670 nM for the second.

`CCC(=O)N[C@@H](C)c1ccc(OC2CN(c3ncc(C4CC4)cn3)C2)cc1` [Example 9, (S)—N-(1-(4-(1-(5-Cyclopropylpyrimidin-2-yl)azetidin-3-yloxy)phenyl)ethyl)-propionamide] and `CCNC(=O)N[C@@H](C)c1ccc(OC2CN(c3ncc(C4CC4)cn3)C2)cc1` [Example 10.2] are within 1.5-fold of each other in IC50: 1100 nM for the first, 1170 nM for the second.

`C[C@H](NC(=O)N(C)C)c1ccc(OC2CN(c3ncc(C4CC4)cn3)C2)cc1` [Example 10.1] and `COC(=O)N[C@@H](C)c1ccc(OC2CN(c3ncc(C4CC4)cn3)C2)cc1` [Example 10.6] are within 1.5-fold of each other in IC50: 340 nM for the first, 420 nM for the second.

First: CCNC(=O)N[C@@H](C)c1ccc(OC2CN(c3ccc(OCC)cc3)C2)cc1 [Example 10.4]
Second: CCOc1cc(N2CC(Oc3ccc([C@H](C)NC(C)=O)cc3)C2)ncn1 [Example 11.3]
The IC50 of the first is 27-fold lower: 440 nM for the first, 11800 nM for the second. The first is the more potent here.

First: CCCOc1ccc(N2CC(Oc3ccc([C@H](C)NC(=O)N(C)C)cc3)C2)c(OC)c1 [Example 10.5]
Second: CCCOc1cc(N2CC(Oc3ccc([C@H](C)NC(C)=O)cc3)C2)ncn1 [Example 11.1, (S)—N-(1-(4-(1-(6-Propoxypyrimidin-4-yl)azetidin-3-yloxy)phenyl)ethyl)acetamide]
The IC50 of the first is 13-fold lower: 480 nM for the first, 6010 nM for the second.

Going from `CC(=O)N[C@@H](C)c1ccc(OC2CN(c3cc(OC(C)C)ncn3)C2)cc1` [Example 11.2] to `CC(=O)N[C@@H](C)c1ccc(OC2CN(c3cc(OCC4CC4)ncn3)C2)cc1` [Example 11.4], the IC50 falls from 10600 nM to 2390 nM (4.4-fold). The second is the more potent here.

`CC(=O)N[C@@H](C)c1ccc(OC2CN(c3cc(OC4CCC4)ncn3)C2)cc1` [Example 11.5] and `CC(=O)N[C@@H](C)c1ccc(OC2CN(c3cc(N(C)CC4CC4)ncn3)C2)cc1` [Example 12.1] are within 1.5-fold of each other in IC50: 3200 nM for the first, 4120 nM for the second.

Compared with `CCCOc1nccc(N2CC(Oc3ccc([C@H](C)NC(C)=O)cc3)C2)n1` [Example 11.6], `CC(=O)N[C@@H](C)c1ccc(OC2CN(c3ccnc(N(C)CC4CC4)n3)C2)cc1` [Example 12.2] is 12-fold lower in IC50: 8280 nM for the first, 700 nM for the second. The second is the more potent here.

Work on `CC(=O)NC(C)c1ccc(OC2CN(c3ccc(OCC4CC4)cc3)C2)c(F)c1` (stereo not drawn) [Example 13, N-(1-(4-(1-(4-(cyclopropylmethoxy)phenyl)azetidin-3-yloxy)-3-fluorophenyl)ethyl)-acetamide] yielded an IC50 of 100 nM.
